Tested on: C2C12 muscle cells
Assay: Analysis of glucose absorption (2-deoxyglucose) in differentiated C2C12 muscle cells
Format: cell-based
Settings: test materials 10 μM, times relative to control group
Description: C2C12 muscle cells were cultured in DMEM (Dulbecco's modified Eagle's medium) containing 10% bovine calf serum. When the cell density increased to about 85 to 90%, the culture medium was replaced with 1% bovine calf serum and cell differentiation was induced for 6 days. Completely differentiated cells were cultured for 3 hours with Krebs-Ringer buffer (KRB) containing 5 mM glucose. The test materials were added at a concentration of 10 μM. 30 minutes later, 0.2 μCi 2-deoxyglucose was added. KRB was removed 20 minutes later and the cells were washed for 3 times with cold PBS. The cells were lysed with 0.5N NaOH and counted using a radioactive counter.

| Compound | Glucose absorption |
| --- | --- |
| CCSc1nc(NCCN2CCCCC2)c2ccccc2n1 [Compound 44, (2-Ethylsulfanylquinazolino-4-yl)-(2-piperidino-1-ylethyl)-amine] | 1.3 |
| CCCCN(CCO)c1nc(-c2ccccc2)nc2ccccc12 [Compound 157, 2-[Butyl-(2-phenylquinazolino-4-yl)-amino]-ethanol] | 2.0 |
| c1ccc(CCNc2nc(-c3cccnc3)nc3ccccc23)cc1 [Compound 239, Phenethyl-(2-pyridino-3-ylquinazolino-4-yl)-amine] | 0.5 |
| CC(C)(C)c1nc(NCCOCCO)c2ccccc2n1 [Compound 197, 2-[2-(2-tert-Butylquinazolino-4-ylamino)-ethoxy]-ethanol] | 1.3 |
| c1ccc(-c2nc(NCc3ccncc3)c3ccccc3n2)cc1 [Compound 141, (2-Phenylquinazolino-4-yl)-pyridino-4-ylmethylamine] | 2.1 |
| COc1cccc(CCNc2nc(-c3ccccc3)nc3ccccc23)c1 [Compound 120, [2-(3-Methoxyphenyl)-ethyl]-(2-phenylquinazolino-4-yl)-amine] | 1.4 |
| CCSc1nc(NCCN2CCCC2)c2ccccc2n1 [Compound 45, (2-Ethylsulfanylquinazolino-4-yl)-(2-pyrrolidino-1-ylethyl)-amine] | 1.1 |
| CCSc1nc(NC2CCN(Cc3ccccc3)CC2)c2ccccc2n1 [Compound 41, (1-Benzyl-piperidino-4-yl)-(2-ethylsulfanylquinazolino-4-yl)-amine] | 1.1 |
| COc1cc(CNc2nc(-c3ccccc3)nc3ccccc23)cc(OC)c1OC [Compound 129, (2-Phenylquinazolino-4-yl)-(3,4,5-trimethoxybenzyl)-amine] | 1.3 |
| Fc1cccc(CCNc2nc(-c3ccccn3)nc3ccccc23)c1 [Compound 232, [2-(3-Fluorophenyl)-ethyl]-(2-pyridino-2-ylquinazolino-4-yl)-amine] | 1.2 |
| CCCCc1ccc(Nc2nc(-c3ccccc3)nc3ccccc23)cc1 [Compound 79, (4-Butyl-phenyl)-(2-phenylquinazolino-4-yl)-amine] | 1.1 |
| COc1cccc(CNc2nc(-c3ccc(Cl)cc3)nc3ccccc23)c1 [Compound 260, [2-(4-chlorophenyl)-quinazolino-4-yl]-(3-methoxybenzyl)-amine] | 1.4 |
| CC(Nc1nc(-c2ccccc2)nc2ccccc12)c1ccccc1 (centres unmarked) [Compound 87, (1-Phenylethyl)-(2-phenylquinazolino-4-yl)-amine] | 1.0 |
| OCCNc1nc(-c2cccnc2)nc2ccccc12 [Compound 246, 2-(2-Pyridino-3-ylquinazolino-4-ylamino)-ethanol] | 1.2 |
| CCCCNc1nc(SCC)nc2ccccc12 [Compound 19, Butyl-(2-ethylsulfanylquinazolino-4-yl)-amine] | 1.4 |
| Cc1ccc(CNc2nc(-c3ccccc3)nc3ccccc23)cc1 [Compound 54, (4-Methylbenzyl)-(2-phenylquinazolino-4-yl)-amine] | 1.2 |
| FC(F)(F)c1cccc(CNc2nc(-c3ccncc3)nc3ccccc23)c1 [Compound 250, (2-Pyridino-4-ylquinazolino-4-yl)-(3-trifluoromethylbenzyl)-amine] | 1.3 |
| c1ccc(Oc2ccc(Nc3nc(-c4ccccc4)nc4ccccc34)cc2)cc1 [Compound 82, (4-Phenoxy-phenyl)-(2-phenylquinazolino-4-yl)-amine] | 1.2 |
| c1cncc(-c2nc(NCc3cccc4ccccc34)c3ccccc3n2)c1 [Compound 241, Naphthaleno-1-ylmethyl-(2-pyridino-3-ylquinazolino-4-yl)-amine] | 1.2 |

| Compound | Glucose absorption |
| --- | --- |
| CC(C)CNc1nc(-c2ccccc2)nc2ccccc12 [Compound 55, Isobutyl-(2-phenylquinazolino-4-yl)-amine] | 1.2 |
| CCCCCCCCCCCCCCCCNc1nc(SCC)nc2ccccc12 [Compound 43, (2-Ethylsulfanylquinazolino-4-yl)-hexadecylamine] | 1.1 |
| c1ccc(Cc2nc(NCc3cccc4ccccc34)c3ccccc3n2)cc1 [Compound 217, (2-Benzylquinazolino-4-yl)-naphthaleno-1-ylmethylamine] | 1.2 |
| COc1ccc(CNc2nc(Cc3ccccc3)nc3ccccc23)cc1OC [Compound 331, (2-Benzylquinazolino-4-yl)-(3,4-dimethoxybenzyl)-amine] | 1.2 |
| c1ccc(CCCCCNc2nc(-c3ccccc3)nc3ccccc23)cc1 [Compound 53, (5-Phenyl-pentyl)-(2-phenylquinazolino-4-yl)-amine] | 1.2 |
| COCCNc1nc(-c2ccccc2)nc2ccccc12 [Compound 67, (2-Methoxy-ethyl)-(2-phenylquinazolino-4-yl)-amine] | 0.9 |
| Fc1cccc(CNc2nc(-c3ccncc3)nc3ccccc23)c1 [Compound 255, (3-Fluorobenzyl)-(2-pyridino-4-ylquinazolino-4-yl)-amine] | 1.3 |
| COc1ccc(CCNc2nc(-c3ccccc3)nc3ccccc23)cc1OC [Compound 107, [2-(3,4-Dimethoxyphenyl)-ethyl]-(2-phenylquinazolino-4-yl)-amine] | 0.4 |
| CCCNc1nc(SCC)nc2ccccc12 [Compound 31, (2-Ethylsulfanylquinazolino-4-yl)-propylamine] | 1.1 |
| FC(F)(F)c1cccc(CNc2nc(-c3ccccc3)nc3ccccc23)c1 [Compound 66, (2-Phenylquinazolino-4-yl)-(3-trifluoromethylbenzyl)-amine] | 1.3 |
| CCC(COC)Nc1nc(-c2ccccc2)nc2ccccc12 (centres unmarked) [Compound 104, (1-Methoxymethylpropyl)-(2-phenylquinazolino-4-yl)-amine] | 1.0 |
| Cc1nc(NCCO)c2ccccc2n1 [Compound 174, 2-(2-Methylquinazolino-4-ylamino)-ethanol] | 1.2 |
| Fc1cccc(CCNc2nc(-c3ccncc3)nc3ccccc23)c1 [Compound 256, [2-(3-Fluorophenyl)-ethyl]-(2-pyridino-4-ylquinazolino-4-yl)-amine] | 0.6 |
| c1ccc(CCCCNc2nc(-c3ccncc3)nc3ccccc23)cc1 [Compound 252, (4-Phenylbutyl)-(2-pyridino-4-ylquinazolino-4-yl)-amine] | 0.9 |
| CCSc1nc(NC(CC)COC)c2ccccc2n1 (centres unmarked) [Compound 40, (2-Ethylsulfanylquinazolino-4-yl)-(1-methoxymethylpropyl)-amine] | 1.2 |
| CCSc1nc(NCCCN2CCCCC2C)c2ccccc2n1 (centres unmarked) [Compound 48, (2-Ethylsulfanylquinazolino-4-yl)-[3-(2-methyl-piperidino-1-yl)-propyl]-amine] | 1.0 |
| Brc1cccc(Nc2nc(-c3ccccc3)nc3ccccc23)c1 [Compound 83, (3-Bromophenyl)-(2-phenylquinazolino-4-yl)-amine] | 0.7 |
| OCCNc1nc(-c2ccccn2)nc2ccccc12 [Compound 234, 2-(2-Pyridino-2-ylquinazolino-4-ylamino)-ethanol] | 1.1 |
| CCSc1nc(NCCCc2ccccc2)c2ccccc2n1 [Compound 32, (2-Ethylsulfanylquinazoline-4-yl)-(3-phenylpropyl)-amine] | 1.1 |

From US20080207614A1, “QUINAZOLINE DERIVATIVES FOR THE TREATMENT AND PREVENTION OF DIABETES AND OBESITY” (SK CHEMICALS CO., LTD., priority 2004, published 2008)
